Reference: the supplement of paper PMC13380429

Tests used:
Caco-2 [1] = test: drug sensitivity score (DSS) for viability; higher = more toxic; extreme values may be limits of the assay; settings: 72 h
HepG2 [2] = test: as above; settings: 72 h
Calu-3 [3] = test: as above; settings: 72 h
Vero E6 [4] = test: as above; settings: 72 h
U2OS [5] = test: as above; settings: 72 h
[6] = test system: A549-ACE2 infected with SARS-CoV-2; test: SARS-CoV-2 infection rate relative to DMSO; higher = more infection; settings: 24 h
Caco-2 [7] = test: cell viability relative to DMSO; higher = less toxic; settings: 72 h
HepG2 [8] = test: as above; settings: 72 h
Calu-3 [9] = test: as above; settings: 72 h
Vero E6 [10] = test: as above; settings: 72 h
U2OS [11] = test: as above; settings: 72 h
[12] = test system: A549-ACE2 infected with SARS-CoV-2; test: morphology score (similarity to uninfected cells); higher = more like uninfected cells; settings: 24 h
[13] = test system: A549-ACE2 infected with SARS-CoV-2; test: cell count relative to DMSO; higher = less toxic; settings: 24 h
A549-ACE2 [14] = test: phospholipidosis EC50; higher = less potent phospholipidosis inducer
Caco-2 [15] = test: relative viability EC50 (midpoint between 100% and the lowest measured viability); higher = less toxic; settings: 72 h
HepG2 [16] = test: as above; settings: 72 h
Calu-3 [17] = test: as above; settings: 72 h
Vero E6 [18] = test: as above; settings: 72 h
U2OS [19] = test: as above; settings: 72 h
A549-ACE2 [20] = test: drug-induced phospholipidosis relative to tamoxifen; higher = more phospholipidosis

O=C(NCCN1CCC2(CC1)C(=O)NCN2c1cccc(F)c1)c1ccc(F)c(F)c1 [ML298]
Settings	drug sensitivity score	relative viability EC50 [µM]
Caco-2 [1]	0	–
Caco-2 [15]	–	> 10
Calu-3 [3]	0.1	–
Calu-3 [17]	–	> 10
HepG2 [2]	0	–
HepG2 [16]	–	> 10
U2OS [5]	0	–
U2OS [19]	–	> 10
Vero E6 [4]	0	–
Vero E6 [18]	–	> 10

Settings	SARS-CoV-2 infection rate [%]	cell count [%]	cell viability [%]	morphology score	phospholipidosis EC50 [µM]
A549-ACE2 [14], 24 h	–	–	–	–	7.34
A549-ACE2 [14], 48 h	–	–	–	–	9.19
A549-ACE2 [14], 72 h	–	–	–	–	8.25
Caco-2 [7], 1 nM	–	–	98	–	–
Caco-2 [7], 10 nM	–	–	99.7	–	–
Caco-2 [7], 100 nM	–	–	95.2	–	–
Caco-2 [7], 1000 nM	–	–	91.1	–	–
Caco-2 [7], 10000 nM	–	–	89.9	–	–
Calu-3 [9], 1 nM	–	–	96.7	–	–
Calu-3 [9], 10 nM	–	–	104	–	–
Calu-3 [9], 100 nM	–	–	101	–	–
Calu-3 [9], 1000 nM	–	–	93.9	–	–
Calu-3 [9], 10000 nM	–	–	89.1	–	–
HepG2 [8], 1 nM	–	–	97.3	–	–
HepG2 [8], 10 nM	–	–	103	–	–
HepG2 [8], 100 nM	–	–	101	–	–
HepG2 [8], 1000 nM	–	–	97.7	–	–
HepG2 [8], 10000 nM	–	–	89.1	–	–
U2OS [11], 1 nM	–	–	103	–	–
U2OS [11], 10 nM	–	–	102	–	–
U2OS [11], 100 nM	–	–	104	–	–
U2OS [11], 1000 nM	–	–	98.5	–	–
U2OS [11], 10000 nM	–	–	94.2	–	–
Vero E6 [10], 1 nM	–	–	101	–	–
Vero E6 [10], 10 nM	–	–	105	–	–
Vero E6 [10], 100 nM	–	–	102	–	–
Vero E6 [10], 1000 nM	–	–	107	–	–
Vero E6 [10], 10000 nM	–	–	89.8	–	–
[6], 0.3 µM	100	–	–	–	–
[6], 3 µM	83	–	–	–	–
[6], 10 µM	32	–	–	–	–
[6], 30 µM	25	–	–	–	–
[12], 0.3 µM	–	–	–	-0.08	–
[12], 3 µM	–	–	–	0.43	–
[12], 10 µM	–	–	–	0.74	–
[12], 30 µM	–	–	–	0.22	–
[13], 0.3 µM	–	102	–	–	–
[13], 3 µM	–	102	–	–	–
[13], 10 µM	–	116	–	–	–
[13], 30 µM	–	95	–	–	–

drug-induced phospholipidosis [%], A549-ACE2 [20]
Settings	0.3 µM	0.833333 µM	3.33333 µM	6.66667 µM	10 µM	30 µM
24 h	1.51	2.03	17.2	46.9	89.3	113
48 h	7.03	7.88	17.8	36.7	79.7	127
72 h	6.97	7.75	18.7	39.7	90.5	–

O=C(Nc1ccc(-c2ccnc(Nc3ccc(N4CCOCC4)cc3)n2)cc1)C1CCCN1 (stereo not given) [XL019]
Settings	drug sensitivity score	relative viability EC50 [µM]
Caco-2 [1]	0	–
Caco-2 [15]	–	> 10
Calu-3 [3]	0	–
Calu-3 [17]	–	> 10
HepG2 [2]	2.8	–
U2OS [5]	0	–
U2OS [19]	–	> 10
Vero E6 [4]	0	–
Vero E6 [18]	–	> 10

Settings	SARS-CoV-2 infection rate, [6] [%]	cell count, [13] [%]	cell viability, Caco-2 [7] [%]	cell viability, Calu-3 [9] [%]	cell viability, HepG2 [8] [%]	cell viability, U2OS [11] [%]	cell viability, Vero E6 [10] [%]	morphology score, [12]
1 nM	–	–	89.4	109	95.1	97.9	102	–
10 nM	–	–	99.2	98	96.3	97.5	102	–
100 nM	–	–	98.7	107	89.9	98	98.5	–
0.3 µM	100	98	–	–	–	–	–	0.04
1000 nM	–	–	94.2	122	88.1	96.5	94.5	–
3 µM	101	99	–	–	–	–	–	-0.09
10 µM	86	109	–	–	–	–	–	0.26
10000 nM	–	–	86.5	119	67.5	90.6	94.6	–
30 µM	46	109	–	–	–	–	–	0.33

drug-induced phospholipidosis [%], A549-ACE2 [20]
Settings	0.3 µM	0.833333 µM	3.33333 µM	6.66667 µM	10 µM	30 µM
24 h	-0.79	-8.22	-5.43	0.07	5.79	96.9
48 h	3.03	-8.76	-8.92	-8.57	-5.17	83.3
72 h	5.53	-8.19	-8.71	-9.82	-6.36	–
